Results taken from publication PMC12040169 (PLOS Biology, 2025).

Experiment: in vitro
Conditions: human, hela cells, % viability

| SMILES | viability at 28.5 h, 10 µM |
| --- | --- |
| Cc1ccc(-c2cc(C(=O)N3CCOCC3)c3cc(Br)ccc3n2)cc1 [CBK066901] | 86.4% |
| O=C(c1ccccc1)N1C[C@@H]2CCCCN(Cc3cccnc3)[C@@H]2C1 [CBK285512] | 98.7% |
| CN(c1ncccc1C#N)C1CCN(CCC(N)=O)CC1 [CBK016793] | 87.2% |
| CC(C)OC(=O)Cn1c(C2CCCNC2)cc2cccnc21 (stereo not shown) [CBK285058] | 100% |
| O=c1[nH]ccn1CCNc1cc(-c2ccccc2Oc2ccccc2)ncn1 [CBK036966] | 90.4% |
| Clc1cncc(OCCCCOc2ccccc2)n1 [CBK176018] | 108% |
| CCc1cc(C(=O)OC)c(NC(=O)CC2Nc3cccc4cccc(c34)NC2=O)s1 (stereo not shown) [CBK267563] | 59.8% |
| CC(=O)Nc1nc(-c2ccccc2C)ccc1C(=O)N(C)C [CBK106328] | 94.6% |
| CC(=O)NC(CSc1cc(C)nc2ccc(F)cc12)C(=O)O (stereo not shown) [CBK286815] | 91.7% |
| OC(COc1cccc(C(F)(F)F)c1)CN1CCN(c2nc(-c3ccccc3)ns2)CC1 (stereo not shown) [CBK074678] | 93% |
| CC(C)(C)c1nc(NS(=O)(=O)c2ccc(Cl)cc2)sc1Br [CBK014258] | 102% |
| COc1ccc(Br)cc1CN(CCc1ccc2c(c1)OCO2)Cc1cccnc1 [CBK263327G] | 96.8% |
| O=C(O)C(Cc1ccccc1)N1C(=O)/C(=C/C=C/c2ccccc2)SC1=S (stereo not shown) [CBK263496] | 99.6% |
| COc1cccc(CC(=O)N2CCC[C@@H](N)[C@@H]2c2ccccc2F)c1 [CBK283455] | 84.5% |
| O=C(Cn1c(C(F)(F)F)nc2ccccc21)NCCN1CCCC1 [CBK267150] | 97.8% |
| COc1ccc(F)cc1-c1cccc(CC2(C(=O)NCCc3ccccc3)CCOCC2)c1 [CBK285562] | 84.5% |
| Cn1c(C(=O)NC2CCOC(C)(C)C2)cc2ccccc21 (stereo not shown) [CBK304344] | 91.7% |
| Cc1ccc(SCc2ccc(C(=O)Nc3ccccc3C(=O)N3CCCC3)cc2)cc1 [CBK268217] | 112% |
| O=C(Cn1cnc2c(cnn2-c2ccccc2)c1=O)N1CCc2ccccc21 [CBK287529] | 91.7% |
| O=C(O)CCCN1C(=O)C(O)=C(C(=O)c2ccc([N+](=O)[O-])cc2)C1c1ccccc1F (stereo not shown) [CBK263810] | 97.8% |
| CCN(CC)c1ccc(SC)n1C [CBK020929] | 104% |
| CCN(CC)CCNC(=O)c1ccc(C(=O)O)c(C)n1 [CBK304248] | 85.9% |
| Cc1ccc(C(=O)NCC(=O)O)cc1S(=O)(=O)N1CCOCC1 [CBK264534] | 90.9% |

| SMILES | viability at 28.5 h, 10 µM |
| --- | --- |
| Clc1ccc(CSCCn2cccc2)cc1 [CBK021366] | 92% |
| CCOC(=O)C1(C2CCCCC2)CCN(C(=O)CN2C(=O)CSC2=O)CC1 [CBK160993] | 97.1% |
| CCOC(=O)C1=C(c2ccccc2)Nc2ncnn2C1c1cccc(OC)c1OC (stereo not shown) [CBK266353] | 106% |
| O=C(O)Cc1ccc(-n2c(S)nnc2-c2ccncc2)cc1 [CBK268860] | 94.9% |
| CC(C)NC(=O)Cn1c(-c2cccs2)cc2cccnc21 [CBK282454] | 97.3% |
| O=C(O)c1ccc(Oc2ccc([N+](=O)[O-])cc2)cc1C(=O)O [CBK260961] | 89% |
| Cc1ccc(S(=O)(=O)N(CC(=O)NCc2ccco2)c2cc(C)cc(C)c2)cc1 [CBK263982] | 86.2% |
| O=C(NCc1cccc(OCC2CCCO2)c1)C1C2CCCCC21 (stereo not shown) [CBK281517] | 94.3% |
| O=C(O)CNC(=O)Cn1ccc2ccc(OCc3ccccc3)cc21 [CBK286644] | 85.9% |
| CCN(Cc1ccc(C#N)cc1F)C(=O)NC(C)c1cnn(C)c1C (stereo not shown) [CBK305643] | 108% |
| Cc1cccc(C(=O)Nc2ccc(C(=O)NNC(=O)C(C)(C)C)cc2)c1 [CBK269073] | 111% |
| O=C(c1cn(-c2cc(Nc3ccccc3)ncn2)cn1)N1CCOCC1 [CBK288610] | 103% |
| CCOC(=O)C1(C2CCCCC2)CCN(C(=O)c2ccc(S(N)(=O)=O)cc2)CC1 [CBK137105] | 93.2% |
| O=C(NC1CCN(CCOc2ccccc2F)CC1)c1cccs1 [CBK305737] | 96.8% |
| COc1ccc2nc(Nc3nnc(-c4ccco4)o3)sc2c1 [CBK287486] | 102% |
| Clc1cncc(-c2cc3ccccc3[nH]2)n1 [CBK154865] | 101% |
| CC1CCN(Cc2c(C3CCNCC3)[nH]c3ncccc23)CC1 [CBK285022] | 91.7% |
| Cc1sc(NC(=O)C2C3C=CC(C3)C2C(=O)O)c(C(N)=O)c1C (stereo not shown) [CBK263685] | 87.6% |
| COc1ccc(CCNC(=O)C(=O)Nc2ccc(C)c(C)c2)cc1 [CBK263222] | 91.1% |
| Cc1nn(C)cc1C(C)NC(=O)c1cn2cccc(C)c2n1 (stereo not shown) [CBK281731] | 92.1% |
| CNC(=O)C1(Cc2ccccc2-c2cccc(F)c2)CCN(C(=O)Cc2ccccc2)CC1 [CBK285692] | 115% |
| Cc1ccc(-c2csc(NC(=O)c3ccccc3C(=O)O)n2)cc1 [CBK072083] | 91.9% |
| Cc1cccn2cc(C(=O)NCCCn3cccn3)nc12 [CBK281749] | 75.3% |

| SMILES | viability at 28.5 h, 10 µM |
| --- | --- |
| N#CCc1c(-c2ccc(Br)cc2)nc2ccccn12 [CBK172896] | 100% |
| Cc1ccc(CN2CCC(O)(Cn3ccc4ncccc43)CC2)o1 [CBK284751] | 97.7% |
| COc1cc(-c2nccnc2NCc2ccco2)cc(OC)c1OC [CBK037072] | 111% |
| Cc1c(NC(=O)c2ccc3c(c2)C(=O)N(Cc2ccco2)C3=O)cccc1C(=O)O [CBK268627] | 92.9% |
| CCOC(=O)c1cc(-c2ccc(OC)cc2)nn1-c1ccc(C(=O)O)cc1 [CBK296133] | 87.9% |
| CCCC(=O)c1ccc(S(=O)(=O)N2CCN(Cc3ccc4cccc(O)c4n3)CC2)cc1 [CBK063158] | 102% |
| O=C(c1ccco1)N1CCN(c2cc(-c3cccnc3)ncn2)CC1 [CBK037833] | 101% |
| COC(=O)c1cnn(-c2cc(Oc3ccccc3C)ncn2)c1N [CBK098668] | 102% |
| O=C(C1CCCC1)N1CC(n2nc(-c3ccccc3)ccc2=O)C1 [CBK284617] | 93.9% |
| CCc1cccc2c(C=C3C(=O)N(CC(=O)O)C(=O)c4ccccc43)c[nH]c12 [CBK295153] | 81.5% |
| O=C(NCCc1cccs1)Nc1ccc(F)c(F)c1 [CBK043951] | 87% |
| CCc1ccc(/C=N/N2CCN(Cc3cccc4ccccc34)CC2)cc1 [CBK262986] | 104% |
| Cc1cc(C(F)F)nn1CC(=O)N1CCc2ncc(Cl)cc2C1 [CBK284853] | 108% |
| O=C(O)c1ccccc1NS(=O)(=O)c1cccc2cccnc12 [CBK042358] | 56.7% |
| COc1ccc(-c2noc(CSc3nc4ccccc4c(=O)n3-c3ccccc3)n2)cc1OC [CBK268667] | 100% |
| Fc1ccc(Oc2nccnc2N2CCN(CCOc3cccnc3)CC2)cc1 [CBK083037T] | 98.7% |
| O=C(Nc1ccccn1)c1cc2ccccc2oc1=O [CBK287354] | 91.7% |
| COc1ccccc1-c1nccnc1N1CCCC1CO (stereo not shown) [CBK036735] | 102% |
| Cc1ccc(S(=O)(=O)N(C)c2c(C)ccc(S(=O)(=O)N(C)CCO)c2C)cc1 [CBK264970] | 85.5% |
| Cc1cccc(C(=O)Nc2cc(NC(=O)c3cccc(C)c3)cc(C(=O)O)c2)c1 [CBK269649] | 98% |
| CCOc1ccc(CCC(=O)N2CCCc3c(cnn3C)C2)cc1 [CBK285276] | 85.8% |
| CC(=O)N1CC[C@H]2NC(=O)CNC(=O)C3(CCCC[C@H]2C1)CCNCC3 [CBK292142] | 93.8% |
| CC(C)c1ccc(Cc2cnc(NC(=O)c3cc(Br)cs3)s2)cc1 [CBK300503] | 88.7% |

| SMILES | viability at 28.5 h, 10 µM |
| --- | --- |
| O=C(Nc1cccc(Cl)c1)C1CCC(C(=O)Nc2cccc(Cl)c2)CC1 (stereo not shown) [CBK269136] | 85.8% |
| Cc1cccc(C(C)(C)C)c1OCCNCCN [CBK265058G] | 118% |
| CCN1CC2(CCN(CCCN(C)C)CC2)c2ccccc21 [CBK136988] | 84.5% |
| CC(Sc1ncc(-c2ccc(F)cc2)n1Cc1ccccc1)C(=O)NC1CC1 (stereo not shown) [CBK297105] | 108% |
| Cc1cccc2sc(NC(=O)C3COc4ccccc4O3)nc12 (stereo not shown) [CBK287367] | 113% |
| CS(=O)(=O)N1CCc2cc(-c3csc(N)n3)ccc21 [CBK304596] | 102% |
| O=C(NCC1CCCCC1)C1(Cc2cccc(-c3cccnc3)c2)CCOCC1 [CBK285607] | 97.5% |
| OCCOc1nc2ccccc2s1 [CBK001812] | 97.2% |
| C/C(C(=O)O)=C(/C)C(=O)N1CCC2(CC1)NCCc1c2[nH]c2ccc(C)cc12 [CBK047026] | 100% |
| CC(C)Nc1cc(Cl)ncn1 [CBK081511] | 108% |
| O=C(COc1cccnc1)NCc1ccc(-c2csnn2)cc1 [CBK149312] | 93.1% |
| CC(C)N1CCCC(CNC(=O)C2Cc3cc(Cl)ccc3O2)C1 (stereo not shown) [CBK282686] | 92.8% |
| CC1CCN(c2ccc(C(C)NC(=O)Cn3cccn3)cc2)CC1 (stereo not shown) [CBK281725] | 86.1% |
| CCN1CCN(Cc2c[nH]c3ccccc23)CC1 [CBK261540] | 99.4% |
| CCn1ncc(CN[C@@H]2CCC(=O)N[C@H]2c2cc(F)cc(F)c2)c1C [CBK282914] | 98.3% |
| O=C(O)c1[nH]c2ccccc2c1NS(=O)(=O)c1cc(Cl)sc1Cl [CBK049886] | 67.5% |
| COc1ccc([C@@]23CC[C@@H](NC(=O)Nc4c(F)cc(F)cc4Cl)C[C@@H]2N(C)CC3)cc1OC [CBK073740T] | 112% |
| O=C(Cn1cccn1)N1CCc2[nH]c3ccccc3c2C1 [CBK281839] | 92.6% |
| CC(C)CCNC(=O)c1c(O)c2ccccc2[nH]c1=O [CBK159975] | 91.7% |
| C#CCNC(=O)C1CCN(c2nc3ccccc3n2C)CC1 [CBK283956] | 89.7% |
| O=C(c1ccc[nH]1)N1Cc2ccccc2C1 [CBK200319] | 89.4% |
| Cc1oc(NC(=O)CN2CCN(c3ccccn3)CC2)c(C#N)c1C [CBK236456] | 96.9% |
